According to article PMC8589421, “Impact of Type II LRRK2 inhibitors on signaling and mitophagy” (Biochemical Journal, 2021):

Assays:
[1] = system: LRRK2 Ser935 phosphorylation, LRRK2[G2019S]; assay: LRRK2 Ser935 phospho-immunoblot in LRRK2[G2019S] knock-in MEFs; type: cell-based, mouse; conditions: Figure 4B
Experimental: Wild-type and homozygous LRRK2 [R1441C] (Jax, stock number: 009346), LRRK2[G2019S] Taconic, (model 13940) and LRRK2 [A2016T] (Jax, stock number: 021828)[7] knock-in MEF cells were isolated from littermate-matched mouse embryos on a C57BL/6J background at day E12.5 as described previously. MEFs were grown in Dulbecco's modified Eagle medium (DMEM GIBCO, #11960-085) containing 10% (by vol) fetal bovine serum (FBS), 2 mM L-glutamine, 100 U/ml penicillin, and […] streptomycin supplemented with non-essential amino acids and 1 mM sodium pyruvate. Human embryonic kidney 293 (HEK293) (#ATCC CRL-1573) and HeLa (#ATCC CCL-2) cells were purchased from American Tissue Culture Collection (ATCC) and cultured in DMEM containing 10% (by vol) FBS, 2 mM L-glutamine, 100 U/ml penicillin, and […] streptomycin. […]
Cells were lysed in an ice-cold lysis buffer containing 50 mM Tris–HCl, pH 7.4, 1% (by vol) Triton X-100, 10% (by vol) glycerol, 150 mM NaCl, 1 mM sodium orthovanadate, 50 mM NaF, 10 mM 2-glycerophosphate, 5 mM sodium pyrophosphate, 1 µg/ml microcystin-LR, and cOmplete EDTA-free protease inhibitor cocktail (Roche, #11836170001). […] Supernatants were quantified by Bradford assay (Bio-Rad Protein Assay Dye Reagent Concentrate #5000006) and samples prepared in 1× lithium dodecyl sulfate sample buffer final concentration (NuPage LDS Sample buffer 4× Invitrogen, #NP0008). […]

[2] = system: basal mitophagy, LRRK2[G2019S] MEFs; assay: mito-QC basal mitophagy in LRRK2[G2019S] knock-in primary MEFs; type: cell-based, mouse; conditions: 24 h, 30–300 nM GZD-824, GSK3357679A 100 nM positive control
Experimental: (§1) To assess mitophagy, wild type, G2019S knock in, and LRRK2 knock out primary mouse embryonic fibroblasts (MEFs) were derived, from time-mated pregnant females at E12.5 as previously described. Briefly, cells were plated on glass coverslips and incubated with DMEM (Gibco, 11960-044) supplemented with 10% FBS, 2 mM L-Glutamine (Gibco, 2503-081), 1% non-essential amino acids (Gibco, 11140-035), 1% Antibiotics (Penicillin/Streptomycin 100 U/ml penicillin and 100 µg/ml streptomycin; Gibco), and 150 µM β-Mercaptoethanol (Gibco, 21985-023) at 37°C under a humidified 5% CO2 atmosphere. […] GSK3357679A 100 nM (Ding et al., in prep) was used as a positive control. At the end of the treatment, MEFs were briefly washed twice in DPBS (Gibco, 14190-094), and fixed in 3.7% Paraformaldehyde pH 7.00 (Sigma, P6148), 200 mM HEPES, for 20 min. Cells were then washed two times with DMEM, 10 mM HEPES, and then incubated for 10 min with DMEM, 10 mM HEPES. […] Images were acquired using a Nikon Eclipse Ti-S fluorescence microscope with a 63× objective. Images were analyzed using the mito-QC counter as previously described. Experiments were performed in 3–4 independent experiments and data was analyzed with a one-way ANOVA followed by a Dunnett's multiple comparison test using the GraphPad Prism software (version 8.4.3 (686)).

[3] = system: basal mitophagy, LRRK2 knock-out MEFs; assay: mito-QC basal mitophagy in LRRK2 knock-out primary MEFs; type: cell-based, mouse; conditions: 24 h
Experimental: as §1

[4] = biological target: T1, Flag-LRRK2[G2019S] (Homo sapiens, UniProt Q5S007, G2019S); assay: IC50 LRRK2 Nictide assay, G2019S; type: biochemical; conditions: IC50 LRRK2 G2019S (100 µM ATP), Nictide peptide substrate, value ± SD
T1 construct: towards full length wild type and G2019S pathogenic LRRK2 mutant in a biochemical assay; Flag (N); purchased ThermoFisher Scientific A15201
T1 sequence (Q5S007 whole entry G2019S): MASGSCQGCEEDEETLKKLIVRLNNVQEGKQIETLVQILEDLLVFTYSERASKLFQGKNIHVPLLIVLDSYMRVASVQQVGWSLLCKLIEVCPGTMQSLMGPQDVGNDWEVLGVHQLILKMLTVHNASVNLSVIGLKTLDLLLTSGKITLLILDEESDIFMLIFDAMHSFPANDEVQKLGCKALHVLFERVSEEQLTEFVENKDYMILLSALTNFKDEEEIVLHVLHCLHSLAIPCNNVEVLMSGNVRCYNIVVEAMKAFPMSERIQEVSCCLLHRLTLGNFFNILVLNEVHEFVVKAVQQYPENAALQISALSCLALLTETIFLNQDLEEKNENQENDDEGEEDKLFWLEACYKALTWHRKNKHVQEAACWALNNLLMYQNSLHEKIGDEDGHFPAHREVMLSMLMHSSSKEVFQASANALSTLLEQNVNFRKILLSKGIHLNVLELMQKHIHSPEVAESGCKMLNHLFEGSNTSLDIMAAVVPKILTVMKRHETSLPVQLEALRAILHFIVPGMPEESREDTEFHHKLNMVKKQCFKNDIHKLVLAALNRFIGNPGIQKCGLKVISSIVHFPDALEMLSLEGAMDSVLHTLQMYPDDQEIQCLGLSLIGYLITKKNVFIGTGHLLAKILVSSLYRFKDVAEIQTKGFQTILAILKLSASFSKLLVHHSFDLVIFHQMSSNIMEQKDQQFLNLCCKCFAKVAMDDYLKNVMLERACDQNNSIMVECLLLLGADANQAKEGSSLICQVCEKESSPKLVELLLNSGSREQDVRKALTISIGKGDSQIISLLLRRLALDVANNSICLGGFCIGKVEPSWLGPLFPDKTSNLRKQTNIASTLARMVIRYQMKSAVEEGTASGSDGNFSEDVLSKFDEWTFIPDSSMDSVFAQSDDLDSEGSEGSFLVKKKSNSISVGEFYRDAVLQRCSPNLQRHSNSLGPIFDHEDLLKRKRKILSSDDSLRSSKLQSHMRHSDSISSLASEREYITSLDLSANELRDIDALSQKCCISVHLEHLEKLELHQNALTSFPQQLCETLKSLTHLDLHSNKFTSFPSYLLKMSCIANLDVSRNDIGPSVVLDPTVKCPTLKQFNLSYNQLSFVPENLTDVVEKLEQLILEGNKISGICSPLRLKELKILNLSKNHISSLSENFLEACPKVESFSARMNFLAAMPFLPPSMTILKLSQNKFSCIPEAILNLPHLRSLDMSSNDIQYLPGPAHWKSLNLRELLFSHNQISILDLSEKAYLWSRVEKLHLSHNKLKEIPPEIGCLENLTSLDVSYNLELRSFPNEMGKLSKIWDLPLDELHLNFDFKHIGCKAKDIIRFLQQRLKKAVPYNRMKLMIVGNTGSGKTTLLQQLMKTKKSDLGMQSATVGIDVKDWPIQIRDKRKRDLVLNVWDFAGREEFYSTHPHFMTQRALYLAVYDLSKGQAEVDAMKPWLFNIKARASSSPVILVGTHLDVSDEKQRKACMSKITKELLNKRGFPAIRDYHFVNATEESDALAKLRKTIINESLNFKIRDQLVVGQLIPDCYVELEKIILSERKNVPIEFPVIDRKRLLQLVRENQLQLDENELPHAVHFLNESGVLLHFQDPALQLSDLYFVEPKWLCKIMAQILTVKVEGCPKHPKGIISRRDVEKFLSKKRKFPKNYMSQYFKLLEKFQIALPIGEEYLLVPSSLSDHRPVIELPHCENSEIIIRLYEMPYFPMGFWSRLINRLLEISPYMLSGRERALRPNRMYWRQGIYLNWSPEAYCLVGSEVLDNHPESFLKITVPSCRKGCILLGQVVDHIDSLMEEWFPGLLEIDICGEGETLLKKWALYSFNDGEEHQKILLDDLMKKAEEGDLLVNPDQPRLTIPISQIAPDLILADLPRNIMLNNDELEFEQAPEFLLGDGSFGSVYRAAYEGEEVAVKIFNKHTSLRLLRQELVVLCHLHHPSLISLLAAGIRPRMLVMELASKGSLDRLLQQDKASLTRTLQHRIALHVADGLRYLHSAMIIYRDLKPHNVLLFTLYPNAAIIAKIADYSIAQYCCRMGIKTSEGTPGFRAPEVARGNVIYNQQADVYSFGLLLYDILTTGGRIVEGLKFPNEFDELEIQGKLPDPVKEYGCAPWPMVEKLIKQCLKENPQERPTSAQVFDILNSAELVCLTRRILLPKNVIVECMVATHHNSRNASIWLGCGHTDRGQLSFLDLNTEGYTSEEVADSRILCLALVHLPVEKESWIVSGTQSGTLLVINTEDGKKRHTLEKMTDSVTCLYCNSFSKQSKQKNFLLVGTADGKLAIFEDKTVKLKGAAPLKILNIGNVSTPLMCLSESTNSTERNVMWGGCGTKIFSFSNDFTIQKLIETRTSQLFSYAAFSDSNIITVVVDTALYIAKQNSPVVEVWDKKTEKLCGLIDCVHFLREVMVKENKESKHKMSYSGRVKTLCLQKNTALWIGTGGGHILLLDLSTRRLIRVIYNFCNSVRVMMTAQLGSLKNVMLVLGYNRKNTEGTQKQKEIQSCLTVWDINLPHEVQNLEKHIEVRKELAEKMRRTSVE

SMILES: Cc1ccc(C(=O)Nc2ccc(CN3CCN(C)CC3)c(C(F)(F)F)c2)cc1C#Cc1cnc2[nH]ncc2c1 [GZD-824]
- effect on Ser935 phosphorylation in LRRK2[G2019S] cells [1]: did not impact Ser935 phosphorylation
- stimulation of basal mitophagy [2]: ~2 fold
- impact on basal mitophagy in LRRK2 knock-out cells [3]: neither GZD-824 or GSK3357679A impacted basal mitophagy
- IC50 [4]: 80 nM
